{"source": "patent US8748486B2", "about": "“Inhibitors of yeast filamentous growth and method of their manufacture” (priority 2003, dated 2014)", "key": {"C. albicans": {"system": "C. albicans", "conditions": "cited from earlier work"}, "C. albicans strain CAI4 [1]": {"system": "C. albicans strain CAI4", "experiment": "toxic effect on yeast cell growth", "format": "cell-based, Candida albicans", "conditions": "for toxic effect on yeast cell growth: concentrations up to 1 mM", "procedure": "(§1) A starter culture of C. albicans strain CAI4 was prepared by growing the fungus at a low temperature (28° C.) in GS medium to maintain the yeast cell morphology. […] The synthetic DSF was indistinguishable with the natural DSF in inhibition of germ tube formation."}, "[2]": {"system": "C. albicans strain CAI4 (ATCC MYA-684)", "experiment": "in vitro bioassay of inhibitory activity against C. albicans yeast-to-mycelium transition", "format": "cell-based, Candida albicans", "conditions": "comparison within cis/trans pair, FIG. 2", "procedure": "An in vitro bioassay of the inhibitory activity of the fatty acids of FIG. 2 against C. albicans yeast-to-mycelium transition was carried out.\nC. albicans strain CAI4 (ATCC MYA-684) was incubated at 28° C. for 24 h with shaking in a glucose salts (GS) medium (5 g of glucose, 0.26 g of Na2HPO4.12H2O, 0.66 g of KH2PO4, 0.88 g of MgSO4.7H2O, 0.33 g of NH4Cl, 16 μg of biotin per liter) supplemented with 0.1 mg/ml of uridine.\nAll the C. albicans cells remained, in the yeast form under these conditions. The yeast cells were washed three times with GS medium before use and then were dispersed in GS medium to give a solution with a final OD600 of 1.0.\nThe test compounds set out in FIG. 2 were diluted to the indicated concentrations with GS medium and were added to 100 μl of the washed C. albicans culture in 96-well microtitre plates, mixed and incubated at 37° C. for 6 hours (h).\nThe percentages of yeast cells and germ tubes (filamentous form) were determined microscopically by counting about 300 cells from three replicates. Inhibitory activity was defined as the mole concentration that gave a minimum of 90% inhibition (IC90) relative to control."}, "C. albicans strain CAI4 [3]": {"system": "C. albicans strain CAI4", "experiment": "yeast-to-mycelium conversion of a C. albicans culture at 37° C. with or without DSF", "format": "cell-based, Candida albicans", "procedure": "as §1"}}}
{"molecule": "C=C(C)C1CC=C(C)C(=O)C1", "note": "(stereo not shown) [Carvone]", "values": [{"measurement": "formation of filamentous structures of C. albicans", "setting": "C. albicans", "result": "interfere with the formation of filamentous structures"}]}
{"molecule": "CC(C)CCCCCCC/C=C\\C(=O)O", "note": "[Compound 1, cis-11-methyl-2-dodecenoic acid]", "values": [{"measurement": "effect on yeast growth", "setting": "C. albicans strain CAI4 [1]; FIGS. 3a and 3b", "result": "does not affect yeast growth"}, {"measurement": "toxic effect on yeast cell growth", "setting": "C. albicans strain CAI4 [1]", "result": "not observed to have a toxic effect"}, {"measurement": "toxic effect on yeast cell growth", "setting": "C. albicans strain CAI4 [1]; listed as DSF", "result": "No toxic effect"}, {"measurement": "inhibitory activity of cis- and trans-isomer pairs compared", "setting": "[2]", "result": "identical inhibitory activity"}, {"measurement": "yeast-to-mycelium transition", "setting": "C. albicans strain CAI4 [3]; 30 μM, 37° C., within 6 hours, GS medium", "result": "completely abolished"}, {"measurement": "yeast-to-mycelium transition of a culture of Candida albicans", "setting": "C. albicans strain CAI4 [3]; FIGS. 3a and 3b", "result": "inhibits"}, {"measurement": "inhibition of germ tube formation compared with the natural DSF", "setting": "C. albicans strain CAI4 [3]; synthetic versus natural DSF", "result": "indistinguishable"}]}
{"molecule": "CC(C)CCCCCCC/C=C/C(=O)O", "note": "[Compound 2, trans-11-methyl-2-dodecenoic acid]", "values": [{"measurement": "inhibitory activity of cis- and trans-isomer pairs compared", "setting": "[2]", "result": "identical inhibitory activity"}]}
{"molecule": "CC(C)=CCCC(C)=CCCC(C)=CC(=O)O", "note": "[Compound 3, 3,7,11-trimethyl-2,6,10-dodecatrienoic acid]", "values": [{"measurement": "C. albicans germ tube (mycelium) formation", "setting": "C. albicans", "result": "inhibits"}]}
{"molecule": "CCCCCCCCC/C=C\\C(=O)O", "note": "[Compound 7, cis-2-dodecenoic acid]", "values": [{"measurement": "inhibitory activity of cis- and trans-isomer pairs compared", "setting": "[2]", "result": "very similar or identical inhibitory activity"}]}
{"molecule": "CC(C)=CCCC(C)=CCCC(C)=CCO", "note": "[Farnesol]", "values": [{"measurement": "mycelial development of C. albicans", "setting": "C. albicans; growth morphology assay and differentiation assay, activators L-proline, N-acetylglucosamine, serum", "result": "prevent mycelial development"}]}
{"molecule": "C=C(C)C1CC=C(C=O)CC1", "note": "(stereo not shown) [perillaldehyde]", "values": [{"measurement": "formation of filamentous structures of C. albicans", "setting": "C. albicans", "result": "interfere with the formation of filamentous structures"}]}
